Data on 6 molecules can be found in patent publication US4952580A, “Pesticidal polyhaloalkene derivatives” (priority 1988, dated 1990).

The subject of series [1] is root-knot nematode. Kind of series: Soil Mobility against root-knot nematode. Type of series: in vivo, Meloidogyne incognita. As to conditions: 336 h. The essentials:
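Soil mobility of the nematicidal test material was evaluated by placing treated, nematode-infested soil in 8 cm plastic pots stacked above two or more pots of untreated infested soil, each containing a 10 cm^3 sand layer and filter paper discs. Fifteen cm of water was dripped through, pots drained 16-18 hours, then were planted with cucumber or tomato seedlings and scored for Percent Control.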

Series [2] has as its system root-knot nematode (Meloidogyne incognita). Nature of the series: Initial Root-Knot Nematicidal Activity. The format is in vivo. To be noted: 336 h, read-out: Percent Control; for pest or weed control at 0.078 ppm: Table 2, Application Rate 0.078 ppm; for pest or weed control at 0.156 ppm: Table 2, Application Rate 0.156 ppm; for pest or weed control at 0.625 ppm: Table 2, Application Rate 0.625 ppm; for pest or weed control at 1.25 ppm: Table 2, Application Rate 1.25 ppm; for pest or weed control at 2.5 ppm: Table 2, Application Rate 2.5 ppm. The essentials: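 Compound incorporated into Meloidogyne incognita-infested soil at 10 ppm to 0.078 ppm, then planted with tomato or cucumber seedlings. Root galling scored two weeks after planting as a knot index and converted to percent control, given as averages.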

Series [3] has as its system root-knot nematode. Kind of series: Systemic Activity (basipetal, foliar spray) against root-knot nematode. The format is in vivo, Meloidogyne incognita. To be noted: 336 h, read-out: Percent Control; for pest or weed control at 1250 ppm: Table 8, rate 1250 ppm; for pest or weed control at 2000 ppm: Table 8, rate 2000 ppm. Here is the method: (§1) Compounds of this invention were tested as follows for nematicidal and anthelmintic activity as dust formulations (initial and residual activity) and as acetone/water formulations (systemic activity). The formulations are described above.
Compounds of the invention were tested for basipetal systemic activity against the root-knot nematode. In this test, tomato plants are grown in 10.2 cm diameter fiber pots containing steam-pasteurized soil mix (50%, soil, 50% sand) until 4-6 true leaves appear. Three of the pots are then placed on a turntable in a spray hood and the plants sprayed with 50 ml of water/acetone solution containing the test compound. The soil surface is covered during the spraying to prevent spraying of the soil. After treatment, the potted plants are placed in a lighted drying chamber. The plants are then grown in a growth chamber at 25° C. for three days and inoculated with a standard nematode culture by incorporating the inoculum into the top cm of soil in the pots. The plants are returned to the growth chamber for about two weeks at which time the pots are allowed to dry until the plants begin to wilt. The roots are shaken free of soil and the degree of galling (swelling) noted as compared to galling of untreated control plants. The results are expressed as Knot Index and Percent Control as defined in the initial root-knot nematode activity tests reported above in Table 2.

Series [4] concerns cyst nematode. Nature of the series: Cyst Nematode Test. The format is in vivo. As to conditions: Table 6; rate 5 ppm; read-out: Percent Control. Here is the method:
as §1
The procedures was substantially the same as described in the stunt nematode test except soybean seedlings were used. "Percent Control" (Table 6 appended) is as defined in the stunt nematode test results.

Series [5] concerns root-knot nematode. Nature of the series: Residual Root-Knot Nematicidal Activity. The format is in vivo, Meloidogyne incognita. As to conditions: read-out: Percent Control. A digest of the protocol: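 Soil received 5% dust formulation at 5 and 10 ppm test compound and was held in a greenhouse, then infested with root-knot nematode eggs and larvae at 1, 2 and 4 weeks post-treatment. Cucumber or tomato seedlings were planted and scored about two weeks after infestation for Knot Index and Percent Control.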

Series [6] relates to lesion nematode. Kind of series: Lesion Nematode Test. As to conditions: Table 5, read-out: Percent Control; for pest or weed control at 2.5 ppm: rate 2.5 ppm. Type of series: in vivo. A digest of the protocol: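 Run as the stunt nematode test but on pea seedlings; compounds applied as dust formulations (initial and residual activity) or acetone/water formulations (systemic activity), with untreated samples as reference. Percent control derived by formula.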

The test system of series [7] is corn seedling. Nature of the series: Phytotoxicity noted in Stunt Nematode Test. Type of series: in vivo. On the set-up: key: *: Some phytotoxicity. As to conditions: Table 4a; rate 5 ppm. The source says:
The procedure was substantially the same as in the initial root-knot nematode tests described above except that rates of application of formulated compound were 2.5 and 5 ppm in soil containing a corn seedling, with subsequent inoculation of the soil with combined larvae and adult stunt nematodes. The samples were evaulated approximately four weeks after infestation. The results (Tables 4 and 4a appended) indicate good control at the test application rates as compared with untreated samples where no control was observed. "Percent control" means the difference between average population counts between untreated and treated samples, divided by average population count of untreated sample, multiplied by 100.

In series [8] the test system is Caenorhabditis elegans. Kind of series: C. Elegans Nematode Screening Test and Evaluation (in-vitro). To be noted: Caenorhabditis elegans. A digest of the protocol: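 Worms (10-15 per well) in buffer with E. coli food, ampicillin and mycostatin; compound added in DMSO, 2-3 replicates per rate. Incubated 5-6 days at 20° C. Population development scored against untreated wells, noting effects such as reduced egg hatch or molting disruption.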

For series [9], the system named is stunt nematode. Kind of series: Stunt Nematode Test. The format is in vivo. To be noted: 672 h, Table 4a; rate 5 ppm; read-out: Percent Control.
Where [10] appears, read: Table 7a, 5% dust, 5 ppm, BOTTOM container, read-out: Percent Control.
[11] abbreviates: Table 7a, 5% dust, 5 ppm, TOP container, read-out: Percent Control.
The mark [12] stands for this setting: Table 2, Application Rate 0.312 ppm.
Where [13] appears, read: 168 h, Table 3a, 5% dust, 5 ppm, inoculation 1 week post-treatment.
The mark [14] stands for this setting: 336 h, Table 3a, 5% dust, 5 ppm, inoculation 2 weeks post-treatment.
Setting [15] is: Table 7a, 5% dust, 5 ppm, MIDDLE container, read-out: Percent Control.
Where [16] appears, read: 672 h, Table 3a, 5% dust, 5 ppm, inoculation 4 weeks post-treatment.
[17] abbreviates: Table 9 screen, read-out: Percent Inhibition of Reproduction.
Where [18] appears, read: Table 9 screen, read-out: Percent Mortality.

SMILES strings stand for the structures. Like-named read-outs stand apart in the source and are kept apart here.

`FC(F)=C(F)CCSc1nnc(SCc2cccs2)s1` [Compound 36, 2-(2-thienylmethylthio)-5-(3,4,4-trifluoro-3-butenylthio)-1,3,4-thiadiazole]: the pest or weed control at 5 ppm is 0% in [1] (setting [10]); 97% in series [1] (setting [11]); 17% in series [1] (read-out: Percent Control, Table 7a, 5% dust, 5 ppm, MIDDLE container); 37% in series [4]; 98% in series [5] (setting [13]); 99% in series [5] (setting [14]). Moreover, the pest or weed control at 5 ppm in series [5] (672 h) came out at 95%. Further, the pest or weed control at 0.078 ppm in series [2] was found to be 0%. The pest or weed control at 0.156 ppm in series [2] stood at 25%. In [2] (setting [12]), the pest or weed control at 0.312 ppm came out at 69%. Moreover, the pest or weed control at 0.625 ppm was determined as 96% in series [2] and 0% in [6] (rate .625 ppm). Also, the pest or weed control at 1.25 ppm in series [2] came to 99%; in series [6] (rate 1.25 ppm), 2%. Besides, the pest or weed control at 2.5 ppm in series [2] was determined as 100%. Also, the pest or weed control at 1250 ppm in series [3] was 17%. In addition, the pest or weed control at 2000 ppm in [3] (foliar) came out at 97%.

What is called inhibition is the relative decrease from the control value, in per cent. As usually defined, the mortality is the percentage killed. For `FC(F)=C(F)CCSc1nnc(Cc2ccc(F)cc2)o1` [Compound 45, 2-(4-fluorophenylmethyl)-5-(3,4,4-trifluoro-3-butenylthio)-1,3,4-oxadiazole], the Some phytotoxicity result in series [7] is listed as “*”. The pest or weed control at 5 ppm in series [1] (setting [10]) came out at 83%; in [1] (setting [15]), 97%; in series [1] (setting [11]), 98%; in series [5] (setting [13]), 99%; in series [5] (setting [14]) it was 100%; in series [5] (setting [16]), 98%. The pest or weed control at 5 ppm in series [9] is 80%. In series [2], the pest or weed control at 0.625 ppm amounted to 99%. Further, the pest or weed control at 1.25 ppm in [2] was 99%. In addition, the figures for the pest or weed control at 2.5 ppm in series [2] and in [6] were 99% and 41%, respectively. Moreover, the pest or weed control at 0.312 ppm in [2] is 95%. Moreover, the inhibition at 5 ppm in series [8] (setting [17]) amounted to 25%. Moreover, the mortality at 5 ppm in series [8] (setting [18]) amounted to 0%.

As to `FC(F)=C(F)CCSc1nnc(Cc2ccccc2F)o1` [Compound 44, 2-(2-fluorophenylmethyl)-5-(3,4,4-trifluoro-3-butenylthio)-1,3,4-oxadiazole], the pest or weed control at 5 ppm in series [1] (setting [10]) amounted to 96%; in series [1] (setting [15]) it was 100%; in series [1] (setting [11]), 100%; in [4], 59%; in [5] (setting [13]), 100%; in series [5] (setting [14]), 100%. In addition, the pest or weed control at 5 ppm in [5] (setting [16]) was 100%; in series [9] it was 75%. For the same molecule, the pest or weed control at 0.312 ppm in [2] (setting [12]) was determined as 50%. For the same molecule, the pest or weed control at 0.625 ppm in [2] was determined as 76%. For the same molecule, the pest or weed control at 1.25 ppm in series [2] was found to be 86%. The pest or weed control at 2.5 ppm was 98% in [2] and 88% in series [6]. Moreover, the inhibition at 5 ppm in series [8] (setting [17]) was 25%. In addition, the mortality at 5 ppm in [8] (setting [18]) was determined as 0%.

As to `C=CCSc1nnc(SCCC(F)=C(F)F)s1` [Compound 31, 2-(2-propenylthio)-5-(3,4,4-trifluoro-3-butenylthio)-1,3,4-thiadiazole], the pest or weed control at 5 ppm in series [1] (setting [10]) turned out to be 50%; in [1] (setting [15]), 86%; in [1] (setting [11]) it was 98%; in [4], 7%; in [5] (setting [13]), 97%; in series [5] (setting [14]) it was 97%. For the same molecule, the figures for the pest or weed control at 5 ppm in series [5] (672 h) and in [9] were 95% and 52%, respectively. In addition, the pest or weed control at 0.078 ppm in [2] came out at 0%. In addition, the pest or weed control at 0.156 ppm in series [2] was 13%. In addition, in series [2], the pest or weed control at 0.625 ppm came out at 78%. In addition, in series [2], the pest or weed control at 1.25 ppm was found to be 96%. In addition, the results for the pest or weed control at 2.5 ppm in series [2] and in [6] were 99% and 11%, respectively. The pest or weed control at 1250 ppm in [3] (foliar) is 0%. Moreover, the pest or weed control at 2000 ppm in series [3] (foliar) turned out to be 71%. In addition, in series [8] (setting [17]), the inhibition at 5 ppm was found to be 38%. In [8] (setting [18]), the mortality at 5 ppm is 0%.

For the molecule `FC(F)=C(F)CCSc1nnc(Cc2ccc(F)cc2F)o1` [Compound 46, 2-(2,4-difluorophenylmethyl)-5-(3,4,4-trifluoro-3-butenylthio)-1,3,4-oxadiazole], in series [7], the Some phytotoxicity entry is listed as “*”. Besides, the pest or weed control at 5 ppm came to 78% in series [1] (setting [10]); 97% in [1] (setting [15]); 96% in series [1] (setting [11]); 99% in series [5] (setting [13]); 100% in [5] (setting [14]); 99% in [5] (setting [16]). Moreover, the pest or weed control at 5 ppm in [9] is 65%. Also, the pest or weed control at 0.312 ppm in series [2] (setting [12]) turned out to be 85%. Further, the pest or weed control at 0.625 ppm in series [2] stood at 98%. Moreover, in series [2], the pest or weed control at 1.25 ppm worked out at 98%. Moreover, the results for the pest or weed control at 2.5 ppm in [2] and in series [6] were 99% and 77%, respectively.

Consider `O=[N+]([O-])c1ccc(CSc2nnc(SCCC(F)=C(F)F)s2)cc1` [Compound 35, 2-(4-nitrophenylmethylthio)-5-(3,4,4-trifluoro-3-butenylthio)-1,3,4-thiadiazole], for which the pest or weed control at 5 ppm in series [1] (setting [10]) was 0%; in series [1] (setting [15]) it was 50%; in [1] (setting [11]), 99%; in series [4] it was 0%; in series [5] (setting [13]) it was 99%; in series [5] (setting [14]), 96%. For the same molecule, the pest or weed control at 5 ppm in series [5] (setting [16]) was found to be 84%; in series [9] it was 77%. Further, the pest or weed control at 0.078 ppm in series [2] is 0%. Moreover, the pest or weed control at 0.156 ppm in [2] is 6%. Moreover, the pest or weed control at 0.312 ppm in [2] (setting [12]) was found to be 67%. For the same molecule, the pest or weed control at 1.25 ppm in series [2] worked out at 98%. Also, the pest or weed control at 2.5 ppm in series [2] is 100%. The pest or weed control at 2000 ppm in series [3] (foliar) amounted to 0%. Besides, in series [8] (setting [17]), the inhibition at 5 ppm turned out to be 100%. Besides, the mortality at 5 ppm in series [8] (setting [18]) turned out to be 100%; in [8] (Table 10 evaluation, read-out: Percent Mortality), 100%. Also, in series [8] (Table 10 evaluation, 1.25 ppm, read-out: Percent Inhibition of Reproduction), the inhibition at 1.25 ppm is 100%. For the same molecule, the mortality at 1.25 ppm in series [8] (Table 10 evaluation, 1.25 ppm, read-out: Percent Mortality) came out at 100%. Further, the inhibition at 2.5 ppm in series [8] (Table 10 evaluation, 2.5 ppm, read-out: Percent Inhibition of Reproduction) turned out to be 100%. Also, in series [8] (Table 10 evaluation, 2.5 ppm, read-out: Percent Mortality), the mortality at 2.5 ppm worked out at 100%.
